Laboratory results as given in US20250197387A1, “BCL-XL DEGRADERS AND USES THEREOF” (Kymera Therapeutics, Inc., priority 2021, published 2025).

Key:
Format in all cases: cell-based
MOLT-4 cells = test: CTG (CellTiter-Glo) cell viability assay, MOLT-4; conditions: Homo sapiens, MOLT-4, 72 h, 3 day incubation, read-out: CTG Cell Viability Assay - MOLT-4 3 day: Average external-IC50
In short: (§1)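 Luminescence from CellTiter-Glo, read after 3 days of compound exposure at 37 °C, gave viability; IC50 values came from three-parameter logistic curves. Cells were plated at 10,000 per well and dosed over nine 1:3 steps topping at 10 μM.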

BCL-XL [1] = molecular target: T1, BCL-XL (Homo sapiens, UniProt Q07817); test: BCL-XL degradation assay, western blot in MOLT-4 cells, 16 h; conditions: western blot, MOLT-4 cells, 16 h; for Dmax: read-out: Bcl-xL WB in MOLT-4 degradation 16 h: Average Dmax %; for DC50: read-out: Bcl-xL WB in MOLT-4 degradation 16 h: Mean external-Abs DC50
T1 construct: endogenous in cells; host or cells: MOLT-4
In short: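 MOLT-4 cells treated with compounds at 0.02-10 μM final for 16 hr at 37° C; lysates analysed by western blot with anti-BCL-xL, beta-actin and GAPDH loading controls, infrared imaging and densitometry; DC50 and Dmax % reported as letter codes.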

Caki-2 cells = test: CTG (CellTiter-Glo) cell viability assay, Caki-2; conditions: Homo sapiens, 72 h, 3 day incubation, read-out: CTG Chempartner - Caki-2 3 day: Average external-IC50
In short: as §1

BCL-XL [2] = molecular target: T1, BCL-XL; test: Bcl-xL ELISA degradation in MOLT-4 cells, 6 h; conditions: for DC50: read-out: Bcl-xL ELISA in MOLT-4 degradation 6 h: Mean external-Abs DC50
Description: The letter codes for BCL-XL DC50 include: A (<0.01 μM); B (0.01-0.1 μM); C (>[…]); D (>0.5-1.0 μM); and E (>1.0 μM). The letter codes for Dmax % include A (>75%); B (50 to 75%); C (<50%).

T1 sequence (Q07817 whole entry): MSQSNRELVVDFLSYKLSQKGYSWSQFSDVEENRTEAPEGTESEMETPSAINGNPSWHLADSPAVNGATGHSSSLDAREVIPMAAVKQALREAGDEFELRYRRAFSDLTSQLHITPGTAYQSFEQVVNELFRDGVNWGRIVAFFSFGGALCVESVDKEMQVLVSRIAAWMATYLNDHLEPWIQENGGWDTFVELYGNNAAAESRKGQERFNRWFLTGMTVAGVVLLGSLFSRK

IC50 (MOLT-4 cells) [nM]	Dmax (BCL-XL [1]) [%]	DC50 (BCL-XL [1]) [nM]	Dmax (BCL-XL [2]) [%]	DC50 (BCL-XL [2]) [nM]	Compound	IC50 (Caki-2 cells) [nM]
< 100	> 75	10 to 100			Cc1cc([C@@H](C(=O)N2C[C@H](O)C[C@H]2C(=O)NCc2ccc(-c3scnc3C)cc2OCCCCCCNC(=O)c2nc(N3CCc4cccc(C(=O)Nc5nc6ccccc6s5)c4C3)ccc2-c2cnn(CC3CCCCC3)c2C)C(C)C)on1 [I-198]	> 10000
100 to 1000	> 75	10 to 100			Cc1ncsc1-c1ccc(CNC(=O)[C@@H]2C[C@@H](O)CN2C(=O)[C@@H](NC(=O)C2(F)CC2)C(C)(C)C)c(OCCN2CCN(C(=O)c3nc(N4CCc5cccc(C(=O)Nc6nc7ccccc7s6)c5C4)ccc3-c3cnn(CC4CCCCC4)c3C)CC2)c1 [I-201]	> 10000
100 to 1000	> 75	10 to 100			Cc1cc(N(C)c2ccc(-c3cnn(CC4CCCCC4)c3C)c(C(=O)NS(=O)(=O)CCCCCC(=O)N[C@H](C(=O)N3C[C@H](O)C[C@H]3C(=O)N[C@@H](C)c3ccc(-c4scnc4C)cc3)C(C)(C)C)n2)nnc1Nc1nc2ccccc2s1 [I-120]	> 10000
< 100	> 75	< 10			Cc1ncsc1-c1ccc([C@H](C)NC(=O)[C@@H]2C[C@@H](O)CN2C(=O)[C@@H](NC(=O)c2ccc(CCS(=O)(=O)NC(=O)c3nc(N4CCc5cccc(C(=O)Nc6nc7ccccc7s6)c5C4)ccc3-c3cnn(CC4CCCCC4)c3C)cc2)C(C)(C)C)cc1 [I-143]	1000 to 10000
100 to 1000	> 75	10 to 100			Cc1ncsc1-c1ccc([C@H](CC(=O)NCCCCCNC(=O)c2nc(N3CCc4cccc(C(=O)Nc5nc6ccccc6s5)c4C3)ccc2-c2cnn(CC3CCCCC3)c2C)NC(=O)[C@@H]2C[C@@H](O)CN2C(=O)[C@@H](NC(=O)C2(F)CC2)C(C)(C)C)cc1 [I-199]	> 10000
< 100			> 75	10 to 100	Cc1ncsc1-c1ccc([C@H](C)NC(=O)[C@@H]2C[C@@H](O)CN2C(=O)[C@@H](NC(=O)CCCCc2nc(C3CCCN(C(=O)c4nc(N5CCc6cccc(C(=O)Nc7nc8ccccc8s7)c6C5)ccc4-c4cnn(CC5CCCCC5)c4C)C3)no2)C(C)(C)C)cc1 (stereo partly shown) [I-306]	1000 to 10000
< 100			> 75	< 10	Cc1ncsc1-c1ccc([C@H](C)NC(=O)[C@@H]2C[C@@H](O)CN2C(=O)[C@@H](NC(=O)C2CCN(c3cccc(S(=O)(=O)NC(=O)c4nc(N5CCc6cccc(C(=O)Nc7nc8ccccc8s7)c6C5)ccc4-c4cnn(CC5CCCCC5)c4C)c3)CC2)C(C)(C)C)cc1 [I-380]	1000 to 10000
100 to 1000			> 75	10 to 100	CCN1CCN(Cc2cc(S(=O)(=O)NC(=O)c3nc(N4CCc5cccc(C(=O)Nc6nc7ccccc7s6)c5C4)ccc3-c3cnn(CC4CCCCC4)c3C)ccc2N2CCC(C(=O)N[C@H](C(=O)N3C[C@H](O)C[C@H]3C(=O)NCc3ccc(-c4scnc4C)cc3)C(C)(C)C)CC2)CC1 [I-341]	> 10000
< 100			> 75	< 10	Cc1cc(N(C)c2ccc(-c3cnn(CC45CC6CC(CC(C6)C4)C5)c3C)c(C(=O)NS(=O)(=O)CCCCCc3cccc4c3n(C)c(=O)n4C3CCC(=O)NC3=O)n2)nnc1Nc1nc2ccccc2s1 (stereo not shown) [I-423]	1000 to 10000
< 100			50 to 75	100 to 500	Cc1ncsc1-c1ccc([C@H](C)NC(=O)[C@@H]2C[C@@H](O)CN2C(=O)[C@@H](NC(=O)c2ccc(NC3CCCN(S(=O)(=O)NC(=O)c4nc(N5CCc6cccc(C(=O)Nc7nc8ccccc8s7)c6C5)ccc4-c4cnn(CC5CCCCC5)c4C)C3)cc2)C(C)(C)C)cc1 (stereo partly shown) [I-325]	1000 to 10000
100 to 1000			> 75	10 to 100	Cc1ncsc1-c1ccc([C@H](C)NC(=O)[C@@H]2C[C@@H](O)CN2C(=O)[C@@H](NC(=O)N2CC(Cc3ccc(S(=O)(=O)NC(=O)c4nc(N5CCc6cccc(C(=O)Nc7nc8ccccc8s7)c6C5)ccc4-c4cnn(CC5CCCCC5)c4C)cc3)C2)C(C)(C)C)cc1 [I-346]	> 10000
< 100			> 75	10 to 100	Cc1ncsc1-c1ccc([C@H](C)NC(=O)[C@@H]2C[C@@H](O)CN2C(=O)[C@@H](NC(=O)CCCCCCS(=O)(=O)NC(=O)c2nc(N3CCc4cccc(C(=O)Nc5nc6ccccc6s5)c4C3)ccc2-c2cnn(CC3CCCCC3)c2C)C(C)(C)C)cc1 [I-312]	1000 to 10000
< 100			> 75	100 to 500	Cc1ncsc1-c1ccc([C@H](C)NC(=O)[C@@H]2C[C@@H](O)CN2C(=O)[C@@H](NC(=O)CCS(=O)(=O)NC(=O)c2nc(N3CCc4cccc(C(=O)Nc5nc6ccccc6s5)c4C3)ccc2-c2cnn(CC3CCCCC3)c2C)C(C)(C)C)cc1 [I-311]	1000 to 10000
100 to 1000			> 75	10 to 100	C#Cc1ccc([C@H](C)NC(=O)[C@@H]2C[C@@H](O)CN2C(=O)[C@@H](NC(=O)CCCCCS(=O)(=O)NC(=O)c2nc(N(C)c3cc(C)c(Nc4nc5cccnc5s4)nn3)ccc2-c2cnn(CC34CC5CC(CC(C5)C3)C4)c2C)C(C)(C)C)cc1 [I-447]	> 10000
< 100			> 75	10 to 100	COc1nn(C)c2ccc(CNC(=O)[C@@H]3C[C@@H](O)CN3C(=O)[C@@H](NC(=O)CCCCCS(=O)(=O)NC(=O)c3nc(N4CCc5cccc(C(=O)Nc6nc7cccnc7s6)c5C4)ccc3-c3cnn(CC4CCCCC4)c3C)C(C)(C)C)cc12 [I-483]	> 10000
100 to 1000			> 75	< 10	Cc1ncsc1-c1ccc([C@H](C)NC(=O)[C@@H]2C[C@@H](O)CN2C(=O)[C@@H](NC(=O)CCCS(=O)(=O)NC(=O)c2nc(N3CCc4cccc(C(=O)Nc5nc6ccccc6s5)c4C3)ccc2-c2cnn(CC3CCCCC3)c2C)C(C)(C)C)cc1 [I-304]	1000 to 10000
< 100			> 75	10 to 100	Cc1ncsc1-c1ccc([C@H](C)NC(=O)[C@@H]2C[C@@H](O)CN2C(=O)[C@@H](NC(=O)CCCCCS(=O)(=O)NC(=O)c2nc(N3CCc4cccc(C(=O)Nc5nc6ccccc6s5)c4C3)ccc2-c2cnn(CC3CCCC3)c2C)C(C)(C)C)cc1 [I-442]	> 10000
< 100			> 75	< 10	C#Cc1ccc(CNC(=O)[C@@H]2C[C@@H](O)CN2C(=O)[C@@H](NC(=O)C2CN(c3ccc(S(=O)(=O)NC(=O)c4nc(N(C)c5cc(C)c(Nc6nc7ccccc7s6)nn5)ccc4-c4cnn(CC56CC7CC(CC(C7)C5)C6)c4C)cc3)C2)C(C)(C)C)cc1 [I-440]	> 10000
100 to 1000			> 75	10 to 100	C#Cc1ccc(CNC(=O)[C@@H]2C[C@@H](O)CN2C(=O)[C@@H](NC(=O)CCCCCS(=O)(=O)NC(=O)c2nc(N3CCc4cccc(C(=O)Nc5nc6cccnc6s5)c4C3)ccc2-c2cnn(CC3CCCC3)c2C)C(C)(C)C)cc1 [I-445]	> 10000
100 to 1000			50 to 75	100 to 500	Cc1ncsc1-c1ccc([C@H](C)NC(=O)[C@@H]2C[C@@H](O)CN2C(=O)[C@@H](NC(=O)C2CCN(c3ccc(S(=O)(=O)NC(=O)c4nc(N5CCc6cccc(C(=O)Nc7nc8ccccc8s7)c6C5)ccc4-c4cnn(CC5CCCCC5)c4C)cc3CO)CC2)C(C)(C)C)cc1 [I-316]	> 10000
< 100			> 75	< 10	C#Cc1ccc(CNC(=O)[C@@H]2C[C@@H](O)CN2C(=O)[C@@H](NC(=O)CCCCCS(=O)(=O)NC(=O)c2nc(N(C)c3cc(C)c(Nc4nc5ccccc5s4)nn3)ccc2-c2cnn(CC34CC5CC(CC(C5)C3)C4)c2C)C(C)(C)C)cc1 [I-379]	> 10000
< 100			> 75	< 10	Cc1ncsc1-c1ccc(CNC(=O)[C@@H]2C[C@@H](O)CN2C(=O)[C@@H](NC(=O)CCCc2cc(F)cc(S(=O)(=O)NC(=O)c3nc(N4CCc5cccc(C(=O)Nc6nc7ccccc7s6)c5C4)ccc3-c3cnn(CC4CCCCC4)c3C)c2)C(C)(C)C)cc1 [I-374]	1000 to 10000
1000 to 3000			50 to 75	500 to 1000	Cc1cc(N(C)c2ccc(-c3cnn(CC4CCCC4)c3C)c(C(=O)NS(=O)(=O)c3ccc(N4CCC(C(=O)N[C@H](C(=O)N5C[C@H](O)C[C@H]5C(=O)N[C@@H](C)c5ccc(-c6scnc6C)cc5)C(C)(C)C)CC4)cc3)n2)nnc1Nc1nc2cccnc2s1 [I-457]	> 10000
> 3000			50 to 75	> 1000	C#Cc1ccc([C@H](CO)NC(=O)[C@@H]2C[C@@H](O)CN2C(=O)[C@@H](NC(=O)CCNCCS(=O)(=O)NC(=O)c2nc(N3CCc4cccc(C(=O)Nc5nc6cccnc6s5)c4C3)ccc2-c2cnn(CC(C)C)c2C)C(C)(C)C)cc1 [I-414]	> 10000
< 100			> 75	10 to 100	Cc1cc(N(C)c2ccc(-c3cnn(CC45CC6CC(CC(C6)C4)C5)c3C)c(C(=O)NS(=O)(=O)CCCCC(=O)N[C@H](C(=O)N3C[C@H](O)C[C@H]3C(=O)N[C@@H](C)c3ccc(-c4scnc4C)cc3)C(C)(C)C)n2)nnc1Nc1nc2ccccc2s1 [I-372]	> 10000
